Results on 21 molecules are retold here after EP1202975B1, “SUBSTITUTED POLYCYCLIC ARYL AND HETEROARYL PYRAZINONES USEFUL FOR SELECTIVE INHIBITION OF THE COAGULATION CASCADE” (Pharmacia Corporation, priority 1999, dated 2000).

One assay concerns the target T1, TF-VIIa (Homo sapiens, UniProt P08709).
T1 construct: 2nM recombinant human factor VIIa; purchased American Diagnostica, Greenwich CT; host or cells: soluble TF made in house in E. coli
Put plainly: TF-VIIa Assay. As to conditions: for IC50: cells given as a plain number (IC50), read-out: IC50 or % Inhibition TF-VIIa (30 µM); for IC50 or % Inhibition TF-VIIa (30 µM): % inhibition at 30 µM. Format: biochemical.

For another assay, the target named is Human factor Xa (Homo sapiens, UniProt P00742). Put plainly: Xa Assay. The settings on record: for IC50: read-out: IC50 or % Inhibition Factor Xa (30 µM), cells given as a plain number (IC50); for IC50 or % Inhibition Factor Xa (30 µM): % inhibition at 30 µM.
Human factor Xa, sequence (P00742 235-488 limits assumed): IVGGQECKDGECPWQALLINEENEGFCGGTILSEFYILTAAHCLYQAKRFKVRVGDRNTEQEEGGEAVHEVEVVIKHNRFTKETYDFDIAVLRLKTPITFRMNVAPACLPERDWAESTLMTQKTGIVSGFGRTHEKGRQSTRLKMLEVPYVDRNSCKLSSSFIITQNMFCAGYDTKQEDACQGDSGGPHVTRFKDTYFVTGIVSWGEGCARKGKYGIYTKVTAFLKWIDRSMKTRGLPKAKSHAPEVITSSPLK
Human factor Xa, sequence (P00742 41-179 limits assumed): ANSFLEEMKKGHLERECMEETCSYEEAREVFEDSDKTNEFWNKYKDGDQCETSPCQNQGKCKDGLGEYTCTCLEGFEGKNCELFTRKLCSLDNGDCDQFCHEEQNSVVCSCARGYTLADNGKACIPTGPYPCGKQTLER

Each structure is given as a SMILES string.

T1 sequence (P08709 213-466 limits assumed): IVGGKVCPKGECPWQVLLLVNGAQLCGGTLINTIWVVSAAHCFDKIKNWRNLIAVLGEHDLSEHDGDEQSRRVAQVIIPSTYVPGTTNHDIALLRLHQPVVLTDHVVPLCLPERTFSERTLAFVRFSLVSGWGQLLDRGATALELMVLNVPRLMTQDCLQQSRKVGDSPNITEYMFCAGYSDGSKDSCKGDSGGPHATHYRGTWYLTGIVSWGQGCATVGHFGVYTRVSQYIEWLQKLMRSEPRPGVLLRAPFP
T1 sequence (P08709 61-212 limits assumed): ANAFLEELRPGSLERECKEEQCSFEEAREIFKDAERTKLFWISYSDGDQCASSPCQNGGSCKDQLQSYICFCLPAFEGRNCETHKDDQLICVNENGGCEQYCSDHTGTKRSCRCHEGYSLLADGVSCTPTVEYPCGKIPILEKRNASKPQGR
T1 sequence (P13726 33-251 partner limits assumed): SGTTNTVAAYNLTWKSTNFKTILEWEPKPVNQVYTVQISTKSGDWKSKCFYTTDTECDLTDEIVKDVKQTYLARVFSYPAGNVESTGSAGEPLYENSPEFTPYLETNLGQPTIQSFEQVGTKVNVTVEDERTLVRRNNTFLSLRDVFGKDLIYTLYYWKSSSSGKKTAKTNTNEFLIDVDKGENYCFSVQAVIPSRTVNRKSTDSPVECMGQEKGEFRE

As usually defined, the IC50 is the concentration needed to halve the response being measured. Regarding `N=C(N)c1ccc(CNC(=O)Cn2c(-c3cccc([N+](=O)[O-])c3)c(Cl)nc(NCCc3ccccc3)c2=O)cc1` [compound 77], the IC50 was 2.52 µM at TF-VIIa and > 30 µM on Human factor Xa.
Consider `Cc1ccccc1-c1c(Cl)nc(NCCc2ccccc2)c(=O)n1CC(=O)NCc1ccc(C(=N)N)cc1` [compound 78], for which, at TF-VIIa, the IC50 was 0.43 µM. For the same molecule, the “IC50 or % Inhibition Factor Xa (30 µM)” value at Human factor Xa was found to be 16%@30.
Consider `N=C(N)c1ccc(CNC(=O)Cn2c(-c3cccc4ccccc34)c(Cl)nc(NCCc3ccccc3)c2=O)cc1` [compound 80], for which the IC50 at TF-VIIa is 1.29 µM. In addition, on Human factor Xa, the “IC50 or % Inhibition Factor Xa (30 µM)” value is 29%@30.
For `Cc1cccc(-c2c(Cl)nc(NCCc3ccccc3)c(=O)n2CC(=O)NCc2ccc(C(=N)N)cc2)c1` [compound 81], in that order: 1 µM and 33%@30.
Consider `N=C(N)c1ccc(CNC(=O)Cn2c(-c3ccc4ccccc4c3)c(Cl)nc(NCCc3ccccc3)c2=O)cc1` [compound 82], for which the IC50 on TF-VIIa was determined as 20 µM. Besides, the “IC50 or % Inhibition Factor Xa (30 µM)” value against Human factor Xa is 32%@30.
Turning to `Cc1cccc(-c2cnc(NCCc3ccccc3)c(=O)n2CC(=O)NCc2ccc(C(=N)N)cc2)c1` [compound 83], the IC50 is 0.75 µM at TF-VIIa and > 30 µM on Human factor Xa.
`Cc1cccc(-c2cnc(NCCc3ccccc3)c(=O)n2CC(=O)NCc2ccc(C(=N)N)cc2)c1` [compound 84]: the concentration for half-maximal inhibition (IC50) is 3.03 µM at TF-VIIa and > 30 µM at Human factor Xa.
Consider `Cc1cccc(-c2cnc(NCCc3ccccc3)c(=O)n2CC(=O)NCc2ccc(C(=N)N)cc2)c1` [compound 85], for which the IC50 on TF-VIIa came to 0.88 µM. Further, the “IC50 or % Inhibition Factor Xa (30 µM)” value against Human factor Xa came out at 42%@30.
Turning to `N=C(N)c1ccc(CNC(=O)Cn2c(-c3cccc(N)c3)c(Cl)nc(NCCc3ccccc3)c2=O)cc1` [compound 86], at TF-VIIa, the IC50 is 0.07 µM. Also, the “IC50 or % Inhibition Factor Xa (30 µM)” value against Human factor Xa worked out at 26%@30.
Consider `N=C(N)c1ccc(CNC(=O)Cn2c(-c3cccc(N)c3)c(Cl)nc(NCCc3cccc(Cl)c3)c2=O)cc1` [compound 87], for which the figures for the IC50 on TF-VIIa and at Human factor Xa were 0.07 µM and > 30 µM, respectively.
For `N=C(N)c1ccc(CNC(=O)Cn2c(-c3cccc(N)c3)c(Cl)nc(NCc3ccccc3)c2=O)cc1` [compound 88], in that order: 0.1 µM and > 30 µM.
Turning to `Nc1cccc(-c2c(Cl)nc(NC3CCC3)c(=O)n2CC(=O)NCCc2ccccc2)c1` [compound 89], the “IC50 or % Inhibition TF-VIIa (30 µM)” value against TF-VIIa is 5%@30. Moreover, the “IC50 or % Inhibition Factor Xa (30 µM)” value against Human factor Xa is 5%@30.
Regarding `N=C(N)c1ccc(CNC(=O)Cn2c(-c3cccc(N)c3)c(Cl)nc(NC3CCC3)c2=O)cc1` [compound 90], the IC50 at TF-VIIa worked out at 0.02 µM. In addition, the “IC50 or % Inhibition Factor Xa (30 µM)” value against Human factor Xa is recorded as 16%@30.
As for `N=C(N)NCCCC(NC(=O)Cn1c(-c2cccc(N)c2)c(Cl)nc(NCc2ccccc2)c1=O)C(=O)c1nccs1` (stereo not drawn) [compound 91], the IC50 at TF-VIIa is 0.07 µM; at Human factor Xa, 7 µM.
With `N=C(N)c1ccc(CNC(=O)Cn2c(-c3cccc(N)c3)cnc(NC3CCC3)c2=O)cc1` [compound 92], on TF-VIIa, the IC50 was 0.053 µM. For the same molecule, the “IC50 or % Inhibition Factor Xa (30 µM)” value against Human factor Xa was determined as 18%@30.
With `CC(C)(C)Nc1nc(Cl)c(-c2cccc(N)c2)n(CC(=O)NCc2ccc(C(=N)N)cc2)c1=O` [compound 93], the IC50 at TF-VIIa is 0.07 µM; on Human factor Xa, > 30 µM.
With `CN(C)Nc1nc(Cl)c(-c2cccc(N)c2)n(CC(=O)NCc2ccc(C(=N)N)cc2)c1=O` [compound 94], the IC50 at TF-VIIa is 0.04 µM; at Human factor Xa it was > 30 µM.
For `CNc1cccc(-c2c(Cl)nc(NC(C)C)c(=O)n2CC(=O)NCc2ccc(C(=N)N)cc2)c1` [compound 96], in that order: 0.26 µM and > 30 µM.
Taken in the same sequence, the figures for `Cc1c(N)cccc1-c1c(Cl)nc(NC(C)C)c(=O)n1CC(=O)NCc1ccc(C(=N)N)cc1` [compound 97] were 0.04 µM and > 30 µM.
`Cc1c(N)cccc1-c1cnc(NC(C)C)c(=O)n1CC(=O)NCc1ccc(C(=N)N)cc1` [compound 98]: at TF-VIIa, the IC50 stood at 0.09 µM. Further, the “IC50 or % Inhibition Factor Xa (30 µM)” value against Human factor Xa was 10%@30.
`Nc1cccc(-c2c(Cl)nc(NC3CCC3)c(=O)n2CC(=O)NCc2ccccc2)c1` [compound 99]: on TF-VIIa, the “IC50 or % Inhibition TF-VIIa (30 µM)” value is recorded as 6%@30. Besides, on Human factor Xa, the “IC50 or % Inhibition Factor Xa (30 µM)” value is on record as 8%@30.
